Reference: patent US8658604B2, “Template-fixed beta-hairpin peptidomimetics with protease inhibitory activity” (Polyphor Ltd, priority 2005, dated 2014)
Where a SMILES comes first, the peptide text is derived from it.

These compounds were tested against T1, CathepsinG, from human neutrophils (Homo sapiens, UniProt P08311) (assay: Enzymatic assay, cathepsin G). Details: Cathepsin G IC50.
T1 sequence (P08311 21-244): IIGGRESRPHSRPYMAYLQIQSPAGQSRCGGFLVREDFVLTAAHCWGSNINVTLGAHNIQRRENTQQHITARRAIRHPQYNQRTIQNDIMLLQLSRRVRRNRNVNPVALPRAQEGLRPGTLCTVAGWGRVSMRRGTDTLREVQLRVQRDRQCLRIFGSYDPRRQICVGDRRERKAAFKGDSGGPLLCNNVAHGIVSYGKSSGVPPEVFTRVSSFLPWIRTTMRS

Compound	IC50 [nM]
CC[C@H](C)[C@@H]1NC(=O)[C@@H]2CCCN2C(=O)[C@@H]2CCCN2C(=O)[C@H](CC(=O)O)NC(=O)[C@H](CO)NC(=O)[C@H](CCCCN)NC(=O)[C@H]([C@@H](C)O)NC(=O)[C@@H]2CSSC[C@H](NC1=O)C(=O)N[C@@H](CC(=O)O)C(=O)N1CCC[C@@H]1C(=O)N1CCC[C@H]1C(=O)N[C@@H](CCc1ccccc1)C(=O)N2 [Ex. 29] (HELM PEPTIDE1{[O=C([C@H](CCc1ccccc1)N[*:1])[*:2]].C.T.K.S.D.P.P.I.C.D.[dP].P}$PEPTIDE1,PEPTIDE1,2:R3-10:R3|PEPTIDE1,PEPTIDE1,1:R1-13:R2$$$V2.0)	42
CC[C@H](C)[C@@H]1NC(=O)[C@@H]2CCCN2C(=O)[C@@H]2CCCN2C(=O)[C@H](CC(=O)O)NC(=O)[C@H](CO)NC(=O)[C@H](CCCCN)NC(=O)[C@H]([C@@H](C)O)NC(=O)[C@@H]2CSSC[C@H](NC1=O)C(=O)N[C@@H](Cc1ccc(O)cc1)C(=O)N1CCC[C@@H]1C(=O)N1CCC[C@H]1C(=O)N[C@@H](Cc1ccc(N)cc1)C(=O)N2 [Ex. 32] (HELM PEPTIDE1{[Nc1ccc(C[C@H](N[*:1])C(=O)[*:2])cc1].C.T.K.S.D.P.P.I.C.Y.[dP].P}$PEPTIDE1,PEPTIDE1,2:R3-10:R3|PEPTIDE1,PEPTIDE1,1:R1-13:R2$$$V2.0)	52
CC[C@H](C)[C@@H]1NC(=O)[C@@H]2CCCN2C(=O)[C@@H]2CCCN2C(=O)[C@H](CC(=O)O)NC(=O)[C@H](CO)NC(=O)[C@H](CCCCN)NC(=O)[C@H]([C@@H](C)O)NC(=O)[C@@H]2CSSC[C@H](NC1=O)C(=O)N[C@@H](CC(N)=O)C(=O)N1CCC[C@@H]1C(=O)N1CCC[C@H]1C(=O)N[C@@H](CC1CCCCC1)C(=O)N2 [Ex. 33] (HELM PEPTIDE1{[Cha].C.T.K.S.D.P.P.I.C.N.[dP].P}$PEPTIDE1,PEPTIDE1,2:R3-10:R3|PEPTIDE1,PEPTIDE1,1:R1-13:R2$$$V2.0)	45
CC[C@H](C)[C@@H]1NC(=O)[C@@H]2CCCN2C(=O)[C@@H]2CCCN2C(=O)[C@H](CC(=O)O)NC(=O)[C@H](CO)NC(=O)[C@H](CCCCN)NC(=O)[C@H]([C@@H](C)O)NC(=O)[C@@H]2CSSC[C@H](NC1=O)C(=O)N[C@@H]([C@@H](C)O)C(=O)N1CCC[C@@H]1C(=O)N1CCC[C@H]1C(=O)N[C@@H](CC1CCCCC1)C(=O)N2 [Ex. 34] (HELM PEPTIDE1{[Cha].C.T.K.S.D.P.P.I.C.T.[dP].P}$PEPTIDE1,PEPTIDE1,2:R3-10:R3|PEPTIDE1,PEPTIDE1,1:R1-13:R2$$$V2.0)	56
CC[C@H](C)[C@@H]1NC(=O)[C@@H]2CCCN2C(=O)[C@@H]2CCCN2C(=O)[C@H](CC(=O)O)NC(=O)[C@H](CO)NC(=O)[C@H](CCCCN)NC(=O)[C@H]([C@@H](C)O)NC(=O)[C@@H]2CSSC[C@H](NC1=O)C(=O)N[C@@H](CC(=O)O)C(=O)N1CCC[C@@H]1C(=O)N1CCC[C@H]1C(=O)N[C@@H](CC1CCCCC1)C(=O)N2 [Ex. 35] (HELM PEPTIDE1{[Cha].C.T.K.S.D.P.P.I.C.D.[dP].P}$PEPTIDE1,PEPTIDE1,2:R3-10:R3|PEPTIDE1,PEPTIDE1,1:R1-13:R2$$$V2.0)	54
CCCC[C@@H]1NC(=O)[C@@H]2CCCN2C(=O)[C@H]2CCCN2C(=O)[C@H](CC(N)=O)NC(=O)[C@@H]2CSSC[C@H](NC1=O)C(=O)N[C@@H]([C@@H](C)O)C(=O)N[C@@H](CCCCN)C(=O)N[C@@H](CO)C(=O)N[C@@H](CC(=O)O)C(=O)N1CCC[C@H]1C(=O)N1CCC[C@H]1C(=O)N[C@@H]([C@@H](C)CC)C(=O)N2 [Ex. 41] (HELM PEPTIDE1{[Nle].C.T.K.S.D.P.P.I.C.N.[dP].P}$PEPTIDE1,PEPTIDE1,2:R3-10:R3|PEPTIDE1,PEPTIDE1,1:R1-13:R2$$$V2.0)	49
CCCC[C@@H]1NC(=O)[C@@H]2CCCN2C(=O)[C@H]2CCCN2C(=O)[C@H](CC(=O)O)NC(=O)[C@@H]2CSSC[C@H](NC1=O)C(=O)N[C@@H]([C@@H](C)O)C(=O)N[C@@H](CCCCN)C(=O)N[C@@H](CO)C(=O)N[C@@H](CC(=O)O)C(=O)N1CCC[C@H]1C(=O)N1CCC[C@H]1C(=O)N[C@@H]([C@@H](C)CC)C(=O)N2 [Ex. 43] (HELM PEPTIDE1{[Nle].C.T.K.S.D.P.P.I.C.D.[dP].P}$PEPTIDE1,PEPTIDE1,2:R3-10:R3|PEPTIDE1,PEPTIDE1,1:R1-13:R2$$$V2.0)	77
CC[C@H](C)[C@@H]1NC(=O)[C@@H]2CCCN2C(=O)[C@@H]2CCCN2C(=O)[C@H](CC(=O)O)NC(=O)[C@H](CO)NC(=O)[C@H](CCCCN)NC(=O)[C@H]([C@@H](C)O)NC(=O)[C@@H]2CSSC[C@H](NC1=O)C(=O)N[C@@H](CC(N)=O)C(=O)N1CCC[C@@H]1C(=O)N1CCC[C@H]1C(=O)N[C@@H](Cc1ccccc1Cl)C(=O)N2 [Ex. 45] (HELM PEPTIDE1{[O=C([C@H](Cc1ccccc1Cl)N[*:1])[*:2]].C.T.K.S.D.P.P.I.C.N.[dP].P}$PEPTIDE1,PEPTIDE1,2:R3-10:R3|PEPTIDE1,PEPTIDE1,1:R1-13:R2$$$V2.0)	47
CC[C@H](C)[C@@H]1NC(=O)[C@@H]2CCCN2C(=O)[C@@H]2CCCN2C(=O)[C@H](CC(=O)O)NC(=O)[C@H](CO)NC(=O)[C@H](CCCCN)NC(=O)[C@H]([C@@H](C)O)NC(=O)[C@@H]2CSSC[C@H](NC1=O)C(=O)N[C@@H](CO)C(=O)N1CCC[C@@H]1C(=O)N1CCC[C@H]1C(=O)N[C@@H](Cc1c[nH]c3ccccc13)C(=O)N2 [Ex. 61] (HELM PEPTIDE1{W.C.T.K.S.D.P.P.I.C.S.[dP].P}$PEPTIDE1,PEPTIDE1,2:R3-10:R3|PEPTIDE1,PEPTIDE1,1:R1-13:R2$$$V2.0)	72
CC[C@H](C)[C@@H]1NC(=O)[C@@H]2CCCN2C(=O)[C@@H]2CCCN2C(=O)[C@H](CC(=O)O)NC(=O)[C@H](CO)NC(=O)[C@H](CCCCN)NC(=O)[C@H]([C@@H](C)O)NC(=O)[C@@H]2CSSC[C@H](NC1=O)C(=O)N[C@@H](CO)C(=O)N1CCC[C@@H]1C(=O)N1CCC[C@H]1C(=O)N[C@@H](Cc1cccc3ccccc13)C(=O)N2 [Ex. 62] (HELM PEPTIDE1{[O=C([C@H](Cc1cccc2ccccc12)N[*:1])[*:2]].C.T.K.S.D.P.P.I.C.S.[dP].P}$PEPTIDE1,PEPTIDE1,2:R3-10:R3|PEPTIDE1,PEPTIDE1,1:R1-13:R2$$$V2.0)	69
C[C@@H](O)[C@@H]1NC(=O)[C@@H]2CSSC[C@H](NC(=O)[C@H](CC3CCCCC3)NC(=O)[C@@H]3CCCN3C(=O)[C@@H]3CCCN3C(=O)[C@H](CC(=O)O)NC(=O)[C@H](CO)NC(=O)[C@H](CCCCN)NC1=O)C(=O)N[C@@H](Cc1ccc(O)cc1)C(=O)N1CCC[C@@H]1C(=O)N1CCC[C@H]1C(=O)N[C@@H](C1CCCCC1)C(=O)N2 [Ex. 66] (HELM PEPTIDE1{[O=C([C@@H](N[*:1])C1CCCCC1)[*:2]].C.T.K.S.D.P.P.[Cha].C.Y.[dP].P}$PEPTIDE1,PEPTIDE1,2:R3-10:R3|PEPTIDE1,PEPTIDE1,1:R1-13:R2$$$V2.0)	48
CC[C@H](C)[C@@H]1NC(=O)[C@@H]2CCCN2C(=O)[C@@H]2CCCN2C(=O)[C@H](CC(=O)O)NC(=O)[C@H](CO)NC(=O)[C@H](CCCCN)NC(=O)[C@H]([C@@H](C)O)NC(=O)[C@@H]2CSSC[C@H](NC1=O)C(=O)N[C@@H](CO)C(=O)N[C@H](CC(N)=O)C(=O)N1CCC[C@H]1C(=O)N[C@@H](Cc1ccccc1)C(=O)N2 [Ex. 69] (HELM PEPTIDE1{C.S.[dN].P.F.C.T.K.S.D.P.P.I}$PEPTIDE1,PEPTIDE1,1:R3-6:R3|PEPTIDE1,PEPTIDE1,1:R1-13:R2$$$V2.0)	68
C[C@@H](O)[C@@H]1NC(=O)[C@@H]2CSSC[C@H](NC(=O)[C@H](CC3CCCCC3)NC(=O)[C@@H]3CCCN3C(=O)[C@@H]3CCCN3C(=O)[C@H](CC(=O)O)NC(=O)[C@H](CO)NC(=O)[C@H](CCCCN)NC1=O)C(=O)N[C@@H](CC(N)=O)C(=O)N1CCC[C@@H]1C(=O)N1CCC[C@H]1C(=O)N[C@@H](Cc1ccc(N)cc1)C(=O)N2 [Ex. 70] (HELM PEPTIDE1{[Nc1ccc(C[C@H](N[*:1])C(=O)[*:2])cc1].C.T.K.S.D.P.P.[Cha].C.N.[dP].P}$PEPTIDE1,PEPTIDE1,2:R3-10:R3|PEPTIDE1,PEPTIDE1,1:R1-13:R2$$$V2.0)	69
C[C@@H](O)[C@@H]1NC(=O)[C@@H]2CSSC[C@H](NC(=O)[C@H](CC3CCCCC3)NC(=O)[C@@H]3CCCN3C(=O)[C@@H]3CCCN3C(=O)[C@H](CC(=O)O)NC(=O)[C@H](CO)NC(=O)[C@H](CCCCN)NC1=O)C(=O)N[C@@H](CCCNC(=N)N)C(=O)N1CCC[C@@H]1C(=O)N1CCC[C@H]1C(=O)N[C@@H](C1CCCCC1)C(=O)N2 [Ex. 71] (HELM PEPTIDE1{[O=C([C@@H](N[*:1])C1CCCCC1)[*:2]].C.T.K.S.D.P.P.[Cha].C.R.[dP].P}$PEPTIDE1,PEPTIDE1,2:R3-10:R3|PEPTIDE1,PEPTIDE1,1:R1-13:R2$$$V2.0)	70
CC[C@H](C)[C@@H]1NC(=O)[C@@H]2CCCN2C(=O)[C@@H]2CCCN2C(=O)[C@H](CC(=O)O)NC(=O)[C@H](CO)NC(=O)[C@H](CCCCN)NC(=O)[C@H]([C@@H](C)O)NC(=O)[C@@H]2CSSC[C@H](NC1=O)C(=O)N[C@@H](CO)C(=O)N[C@H]([C@H](C)O)C(=O)N1CCC[C@H]1C(=O)N[C@@H](Cc1ccccc1)C(=O)N2 [Ex. 72] (HELM PEPTIDE1{C.S.[dT].P.F.C.T.K.S.D.P.P.I}$PEPTIDE1,PEPTIDE1,1:R3-6:R3|PEPTIDE1,PEPTIDE1,1:R1-13:R2$$$V2.0)	87
